# Laboratory results: patent US6472391B2, “Nitrogen-containing heterocyclic compounds” (Millennium Pharmaceuticals, Inc., priority 1996, dated 2002)
row,SMILES,melting point [°C]
1,"COc1cc2nc(-c3ccccc3)nc(N3CCN(C(=O)Nc4ccc([N+](=O)[O-])cc4)CC3)c2cc1OC [Compound 111, 4-(6,7-Dimethoxy-2-phenyl-4-quinazolinyl)-N-(4-nitrophenyl)-1-piperazinecarboxamide]",156 to 157
2,"COc1cc2ncnc(N3CCCN(C(=O)Nc4ccc([N+](=O)[O-])cc4)CC3)c2cc1OC [Compound 112, 4-(6,7-Dimethoxy-4-quinazolinyl)-N-(4-nitrophenyl)-1-homopiperazinecarboxamide]",243 to 244
3,"COc1cc2ccnc(N3CCN(C(=O)Nc4ccc([N+](=O)[O-])cc4)CC3)c2cc1OC [Compound 113, 4-(6,7-Dimethoxy-1-isoquinolyl)-N-(4-nitrophenyl)-1-piperazinecarboxamide]",247 to 248
4,"COc1cc2cc(Cl)nc(N3CCN(C(=O)Nc4ccc([N+](=O)[O-])cc4)CC3)c2cc1OC [Compound 114, 4-(3-Chloro-6,7-dimethoxy-1-isoquinolyl)-N-(4-nitrophenyl)-1-piperazinecarboxamide]",227 to 228
5,"O=C(Nc1ccc(Oc2ccccc2)cc1)N1CCN(c2ccnc3cc(Cl)ccc23)CC1 [Compound 115, 4-(7-Chloro-4-quinolyl)-N-(4-phenoxyphenyl)-1-piperazinecarboxamide]",159 to 161
6,"COc1cc2ncnc(N3CCN(C(=O)N(c4ccccc4)c4ccccc4)CC3)c2cc1OC [Compound 116, 4-(6,7-Dimethoxy-4-quinazolinyl)-N,N-diphenyl-1-piperazinecarboxamide]",196 to 197
7,"COc1cc2ncnc(N3CCN(C(=O)Nc4ccc(N5CCOCC5)cc4)CC3)c2cc1OC [Compound 117, 4-(6,7-Dimethoxy-4-quinazolinyl)-N-(4-morpholinophenyl)-1-piperazinecarboxamide]",254 to 256
8,"COc1cc2ncnc(N3CCN(C(=O)Nc4ccc5[nH]ccc5c4)CC3)c2cc1OC [Compound 118, 4-(6,7-Dimethoxy-4-quinazolinyl)-N-(5-indolyl)-1-piperazinecarboxamide]",209 to 210
9,"COc1cc2ncnc(N3CCN(C(=O)NCCc4ccc(Cl)cc4)CC3)c2cc1OC [Compound 119, N-[2-(4-Chlorophenyl)ethyl]-4-(6,7-dimethoxy-4-quinazolinyl)-1-piperazinecarboxamide]",177 to 178
10,"COc1cc2ncnc(N3CCN(C(=O)NCCc4ccc(Br)cc4)CC3)c2cc1OC [Compound 120, N-[2-(4-Bromophenyl)ethyl]-4-(6,7-dimethoxy-4-quinazolinyl)-1-piperazinecarboxamide]",174 to 175
11,"Cn1c(=O)n(C)c2cc3c(N4CCN(C(=O)Nc5ccc(Oc6ccccc6)cc5)CC4)ncnc3cc21 [Compound 121, 4-(1,3-Dihydro-1,3-dimethyl-2-oxo-2H-imidazo[4,5-g]quinazolin-8-yl)-N-(4-phenoxyphenyl)-1-piperazinecarboxamide]",250 to 255
12,"CCn1c(=O)n(CC)c2cc3c(N4CCN(C(=O)Nc5ccc(Oc6ccccc6)cc5)CC4)ncnc3cc21 [Compound 122, 4-(1,3-Diethyl-1,3-dihydro-2-oxo-2H-imidazo[4,5-g]quinazolin-8-yl)-N-(4-phenoxyphenyl)-1-piperazinecarboxamide]",168 to 169
13,"CCn1c(=O)[nH]c2cc3c(N4CCN(C(=O)Nc5ccc(Oc6ccccc6)cc5)CC4)ncnc3cc21 [Compound 123, 4-(3-Ethyl-1,3-dihydro-2-oxo-2H-imidazo[4,5-g]quinazolin-8-yl)-N-(4-phenoxyphenyl)-1-piperazinecarboxamide]",248 to 251
14,"CCn1nnc2cc3c(N4CCN(C(=O)Nc5ccc(Oc6ccccc6)cc5)CC4)ncnc3cc21 [Compound 124, 4-(3-Ethyl-3H-1,2,3-triazolo[4,5-g]quinazolin-8-yl)-N-(4-phenoxyphenyl)-1-piperazinecarboxamide]",167 to 168
15,"COc1cc2ncnc(N3CCN(C(=S)NCC4CCCCC4)CC3)c2cc1OC [Compound 138, N-Cyclohexylmethyl-4-(6,7-dimethoxy-4-quinazolinyl)-1-piperazinethiocarboxamide]",170 to 171
16,"COc1cc2ncnc(N3CCN(C(=S)NCCN4CCOCC4)CC3)c2cc1OC [Compound 142, 4-(6,7-Dimethoxy-4-quinazolinyl)-N-(2-morpholinoethyl)-1-piperazinethiocarboxamide]",79 to 81
17,"COc1cc2ncnc(N3CCN(C(=O)Nc4cccc(C)c4)CC3)c2cc1OC [Compound 144, 4-(6,7-Dimethoxy-4-quinazolinyl)-N-(3-tolyl)-1-piperazinecarboxamide]",218 to 219
18,"COc1cc2ncnc(N3CCN(C(=S)NCc4ccc(C)cc4)CC3)c2cc1OC [Compound 147, 4-(6,7-Dimethoxy-4-quinazolinyl)-N-(4-methylbenzyl)-1-piperazinethiocarboxamide]",202 to 204
19,"CCc1cccc(NC(=O)N2CCN(c3ncnc4cc(OC)c(OC)cc34)CC2)c1 [Compound 148, 4-(6,7-Dimethoxy-4-quinazolinyl)-N-(3-ethylphenyl)-1-piperazinecarboxamide]",207 to 208
20,"COc1cc2ncnc(N3CCN(C(=O)NCc4ccc(C(C)C)cc4)CC3)c2cc1OC [Compound 153, 4-(6,7-Dimethoxy-4-quinazolinyl)-N-(4-isopropylbenzyl)-1-piperazinecarboxamide]",135 to 136
21,"COc1cc2ncnc(N3CCN(C(=O)Nc4ccc(C(C)(C)C)cc4)CC3)c2cc1OC [Compound 156, N-(4-tert-Butylphenyl)-4-(6,7-dimethoxy-4-quinazolinyl)-1-piperazinecarboxamide]",109 to 111
22,"COc1cc2ncnc(N3CCN(C(=S)NCc4ccc(C(C)(C)C)cc4)CC3)c2cc1OC [Compound 157, N-(4-tert-Butylbenzyl)-4-(6,7-dimethoxy-4-quinazolinyl)-1-piperazinethiocarboxamide]",104 to 105
23,"COc1cc2ncnc(N3CCN(C(=O)Nc4ccc(OC(F)F)cc4)CC3)c2cc1OC [Compound 158, N-(4-Difluoromethoxyphenyl)-4-(6,7-dimethoxy-4-quinazolinyl)-1-piperazinecarboxamide]",190 to 192

# The next lines start with the values.
row,melting point [°C],SMILES
1,187 to 189,"COc1cc2ncnc(N3CCN(C(=S)NCc4ccccc4)CC3)c2cc1OC [Compound 125, N-Benzyl-4-(6,7-dimethoxy-4-quinazolinyl)-1-piperazinethiocarboxamide]"
2,191 to 192,"COc1cc2ncnc(N3CCN(C(=O)N[C@@H](C)c4ccccc4)CC3)c2cc1OC [Compound 127, (S)-4-(6,7-Dimethoxy-4-quinazolinyl)-N-(1-phenylethyl)-1-piperazinecarboxamide]"
3,189 to 190,"COc1cc2ncnc(N3CCN(C(=O)N[C@H](C)c4ccccc4)CC3)c2cc1OC [Compound 128, (R)-4-(6,7-Dimethoxy-4-quinazolinyl)-N-(1-phenylethyl)-1-piperazinecarboxamide]"
4,98 to 100,"COc1cc2ncnc(N3CCN(C(=S)N[C@@H](C)c4ccccc4)CC3)c2cc1OC [Compound 129, (S)-4-(6,7-Dimethoxy-4-quinazolinyl)-N-(1-phenylethyl)-1-piperazinethiocarboxamide]"
5,99 to 101,"COc1cc2ncnc(N3CCN(C(=S)N[C@H](C)c4ccccc4)CC3)c2cc1OC [Compound 130, (R)-4-(6,7-Dimethoxy-4-quinazolinyl)-N-(1-phenylethyl)-1-piperazinethiocarboxamide]"
6,164 to 165,"COc1cc2ncnc(N3CCN(C(=S)NCc4cccc5ccccc45)CC3)c2cc1OC [Compound 132, 4-(6,7-Dimethoxy-4-quinazolinyl)-N-(1-naphthylmethyl)-1-piperazinethiocarboxamide]"
7,128 to 129,"COc1cc2ncnc(N3CCN(C(=S)NC(c4ccccc4)c4ccccc4)CC3)c2cc1OC [Compound 133, 4-(6,7-Dimethoxy-4-quinazolinyl)-N-diphenylmethyl-1-piperazinethiocarboxamide]"
8,187 to 188,"COc1cc2ncnc(N3CCN(C(=O)N(C)c4ccccc4)CC3)c2cc1OC [Compound 137, 4-(6,7-Dimethoxy-4-quinazolinyl)-N-methyl-N-phenyl-1-piperazinecarboxamide]"
9,184 to 186,"COc1cc2ncnc(N3CCN(C(=S)NC(=O)C=Cc4ccccc4)CC3)c2cc1OC [Compound 143, N-Cinnamoyl-4-(6,7-dimethoxy-4-quinazolinyl)-1-piperazinethiocarboxamide]"
10,199 to 201,"COc1cc2ncnc(N3CCN(C(=S)Nc4cccc(C)c4)CC3)c2cc1OC [Compound 145, 4-(6,7-Dimethoxy-4-quinazolinyl)-N-(3-tolyl)-1-piperazinethiocarboxamide]"
11,204 to 205,"COc1cc2ncnc(N3CCN(C(=S)Nc4ccc(C)cc4)CC3)c2cc1OC [Compound 146, 4-(6,7-Dimethoxy-4-quinazolinyl)-N-(4-tolyl)-1-piperazinethiocarboxamide]"
12,195 to 197,"CCc1cccc(NC(=S)N2CCN(c3ncnc4cc(OC)c(OC)cc34)CC2)c1 [Compound 149, 4-(6,7-Dimethoxy-4-quinazolinyl)-N-(3-ethylphenyl)-1-piperazinethiocarboxamide]"
13,196 to 197,"COc1cc2ncnc(N3CCN(C(=O)Nc4cccc(C(C)C)c4)CC3)c2cc1OC [Compound 150, 4-(6,7-Dimethoxy-4-quinazolinyl)-N-(3-isopropylphenyl)-1-piperazinecarboxamide]"
14,169 to 171,"COc1cc2ncnc(N3CCN(C(=S)Nc4cccc(C(C)C)c4)CC3)c2cc1OC [Compound 151, 4-(6,7-Dimethoxy-4-quinazolinyl)-N-(3-isopropylphenyl)-1-piperazinethiocarboxamide]"
15,194 to 195,"COc1cc2ncnc(N3CCN(C(=S)Nc4ccc(C(C)C)cc4)CC3)c2cc1OC [Compound 152, 4-(6,7-Dimethoxy-4-quinazolinyl)-N-(4-isopropylphenyl)-1-piperazinethiocarboxamide]"
16,178 to 179,"COc1cc2ncnc(N3CCN(C(=S)NCc4ccc(C(C)C)cc4)CC3)c2cc1OC [Compound 154, 4-(6,7-Dimethoxy-4-quinazolinyl)-N-(4-isopropylbenzyl)-1-piperazinethiocarboxamide]"
